Experimental data from patent US8101572B2, “Methods for promoting wound healing and/or reducing scar formation” (Arizona Board of Regents, A Corporate Body Organized Under …, priority 2003, dated 2012).
Non-standard residues stand in square brackets, D forms with d. No end group written: not given here. pS = N[C@@H](COP(=O)(O)O)C(=O)O

Experiments:
[1] = tested on: Swiss albino 3T3 cells; assay: f-actin cytoskeletal distribution (Alexa 568 phalloidin, confocal microscopy); type: cell-based; settings: 30 min, 10 μM LPA, 10 μM forskolin, 25 μM FITC-pHSP20, 25 μM FITC-aHSP20
Experimental: (§1) Unless otherwise stated, all reagents were purchased from Sigma, St. Louis, Mo. Swiss Albino 3T3 fibroblasts (ATCC, Manassas, Va.) were cultured in DMEM supplemented with 10% BCS, 4 mM L-glutamine and 50 μg/ml penicillin-streptomycin and maintained at 37° C., 5% CO2. Cells were seeded and cultured overnight. Culture media was replaced with DMEM containing 0.5% BCS 1 hour prior to experimentation. Cells were incubated with the peptide analogues or reagent (LPA or forskolin) diluted in DMEM containing 0.5% BCS, 30 minutes at 37° C. Cells were then fixed in 4% paraformnaldehyde, permeabilized in 0.25% Triton X-100, and blocked with 1% BSA solution for 1 hour. To determine f-actin cytoskeletal distribution, treated cells were incubated with Alexa 568 phalloidin (Molecular Probes, Eugene, Oreg.) in 1% BSA, 30 minutes. […] Slides were mounted and analyzed by confocal microscopy (Leica TCS SP2, Bannockburn, Ill.). […]
Swiss albino 3T3 cells were either untreated or treated with 10 μM LPA, 10 μM forskolin, 25 μM FITC-pHSP20, or 25 μM FITC-aHSP20 as described (4). Cells were fixed, stained for f-actin using Alexa 568 phalloidin, and visualized by projection images of confocal fluorescence microscopy. […]

[2] = tested on: motor cortex of Sprague Dawley rats; assay: microwire neural electrode implant, histology for glial scarring (GFAP) and axons (MAP2); type: in vivo; settings: rat motor cortex, four weeks after implant; peptide as subdural injection (0.1 cc, 100 μm p20) with dextran coated electrodes
Text: Microwire arrays were implanted in the motor cortex of Sprague Dawley rats. Six male Sprague-Dawley rats (300-450 g) were implanted with 2×4 arrays of 50 μm tungsten wire. The electrodes were spaced 500 um apart for a total array size of approximately 1.5 mm×0.5 mm. The implant was centered +3 mm anterior and +2 mm lateral from bregmna. The craniotomy was opened slightly larger than the implant size and an injection (0.1 cc, 0.9% PBS or 100 μm p20) was made into the arachnoid space near the implant site using a 30 gauge needle. The mirowire array was held in a micromanipulator and lowered 2 mm from the surface of the dura. The craniotomy was covered with Gelfoam® and the implant and connector were cemented in place with dental acrylic. Three groups were implanted and evaluated histologically after four weeks. Group one was implanted with untreated electrodes. […] Texas Red labeled anti-Rabbit and Cy5 labeled antij-donkey secondary antibodies were used respectively for visualization.

[3] = tested on: 3T3 cells; assay: DNase 1 inhibition assay for monomer g-actin; type: cell-based; settings: forskolin 10 μM, 30 min, pHSP20 25 μM
Experimental: 3T3 cells were cultured and treated as indicated on the graph (4). Monomer g-actin was biochemically quantitated using a DNase 1 inhibition assay. The level of g-actin in the cell extract that caused 50% inhibition of DNase 1 was estimated from a standard actin curve that was determined using known amounts of actin. *P<0.05 compared to untreated cells.
To confirm that the loss of stress fibers is associated with loss of filamentous (f-) actin and commensurate increases in globular (g-) actin, a DNase 1 inhibition assay was performed (5). 3T3 cells were cultured and treated as indicated (4). Monomer g-actin was biochemically quantitated using a DNase 1 inhibition assay. The level of g-actin in the cell extract that caused 50% inhibition of DNase 1 was estimated from a standard actin curve that was determined using known amounts of actin. […] Thus, transduction of pHSP20 led to similar changes in actin filament dynamics and cellular morphology, as did activation of the upstream adenylate cyclase activator forskolin.

[4] = tested on: Swiss albino 3T3 cells; assay: focal adhesion protein localization (immunostaining for α-actinin, vinculin, paxillin); type: cell-based; settings: 30 min, 10 μM forskolin, 25 μM pHSP20, 25 μM FITC-aHSP20
Experimental: Unless otherwise stated, all reagents were purchased from Sigma, St. Louis, Mo. Swiss Albino 3T3 fibroblasts (ATCC, Manassas, Va.) were cultured in DMEM supplemented with 10% BCS, 4 mM L-glutamine and 50 μg/ml penicillin-streptomycin and maintained at 37° C., 5% CO2. Cells were seeded and cultured overnight. Culture media was replaced with DMEM containing 0.5% BCS 1 hour prior to experimentation. Cells were incubated with the peptide analogues or reagent (LPA or forskolin) diluted in DMEM containing 0.5% BCS, 30 minutes at 37° C. Cells were then fixed in 4% paraformnaldehyde, permeabilized in 0.25% Triton X-100, and blocked with 1% BSA solution for 1 hour. To determine f-actin cytoskeletal distribution, treated cells were incubated with Alexa 568 phalloidin (Molecular Probes, Eugene, Oreg.) in 1% BSA, 30 minutes. To determine focal adhesion protein localization, treated cells were incubated with primary monoclonal antibodies for α-actinin (1:100, Upstate, Charlottesville, Va.), vinculin (1:100, Sigma) or paxillin (1:100, BD Bioscience-Transduction Labs, San Jose, Calif.) in 1% BSA solution for 2 hours, rinsed in PBS and incubated 60 min with Cy3-goat IgG secondary antibody (Jackson ImmunoResearch, West Grove, Pa.). Slides were mounted and analyzed by confocal microscopy (Leica TCS SP2, Bannockburn, Ill.). […]

[5] = tested on: 3T3 cells; assay: focal adhesion assay using interference reflection microscopy; type: cell-based; settings: cultured 3T3 cells; 100 nM Hep I, 10 μM and 25 μM peptide; FIG. 2
Experimental: Results from the focal adhesion assay using interference reflective microscopy on 3T3 cells treated as described (4). Each condition was tested in triplicate, and an average of 250 cells per coverslip was counted. A cell was scored positive if it contained at least five focal adhesions. Hep I (peptide from thrombospondin 1) was used as a positive control. *P<0.05 compared to untreated cells.
as §1

Substance	cell morphology and stress fibers (f-actin) [1]	density of axons in the vicinity of the microwire electrodes [2]	glial scarring around electrodes [2]	g-actin (monomer) in cell extract ([3]; FIG. 1)	g-actin (monomer) in cell extract ([3]; FIG. 1, listed as PhosphoHSP20 peptide)	focal adhesion accumulations of α-actinin, vinculin, and paxillin [4]	focal adhesions (cells positive for focal adhesions) [5]
YGRKKRRQRRRWLRRApSAPLPGL (YGRKKRRQRRRWLRRA[pS]APLPGL) [pHSP20, phosphopeptide analogue of HSP20 with HIV Tat protein transduction domain]	displayed stellate morphology and disrupted stress fibers	a higher density of axons was seen	essentially no scarring was observed	led to increases in g-actin	disrupts the actin cytoskeleton	displayed a decrease in focal adhesion accumulations of α-actinin, vinculin, and paxillin	led to disruption of focal adhesions
lysophosphatidic acid [reference compound]	displayed robust stress fibers						
